What follows are sequences tested on PC9 (assay: cell count fold change with erlotinib, miRNA mimic vs non-targeting control (log2 ratio); higher = more drug-tolerant survivors than NTC). Settings: erlotinib 1 µM; 72 h drug + 72 h drug-free recovery; perturbation: miRNA mimic.

Sequence	cell count fold change with erlotinib
GGGGAGCUGUGGAAGCAGUA	-2.06
UGGGUCUUUGCGGGCGAGAUGA	-0.809
ACGGAUGUUUGAGCAUGUGCUA	-2.45
AAAGCGCUUCCCUUCAGAGUG	-1.78
AACUGGCCCUCAAAGUCCCGCU	-0.145
UGGAAUGUAAGGAAGUGUGUGG	-0.89
UUCCUAUGCAUAUACUUCUUUG	-1.18
AGGUUGUCCGUGGUGAGUUCGCA	-0.399
UGUAGUGUUUCCUACUUUAUGGA	-4.91
AAGCAGCUGCCUCUGAGGC	0.0583
UGGUGCGGAGAGGGCCCACAGUG	-1.34
UAGCAGCACAGAAAUAUUGGC	-1.13
UAUGGCUUUUUAUUCCUAUGUGA	-1.4
CUGGUUUCACAUGGUGGCUUAG	-2.28
UACGUCAUCGUUGUCAUCGUCA	-0.419
GUGCAUUGCUGUUGCAUUGC	-2.3
AUUCCUAGAAAUUGUUCAUA	0.458
ACUGUAGUAUGGGCACUUCCAG	-1.17
AGUCAUUGGAGGGUUUGAGCAG	-3.38
CAUCUUACUGGGCAGCAUUGGA	-2.32
AAAGACAUAGGAUAGAGUCACCUC	-0.142
GAGUGCCUUCUUUUGGAGCGUU	-4.05

Sequence	cell count fold change with erlotinib
AAAGUGCAUCCUUUUAGAGGUU	-0.881
AACAUAGAGGAAAUUCCACGU	-1.33
UGUCUUGCAGGCCGUCAUGCA	-4.12
UCCUGUACUGAGCUGCCCCGAG	-0.848
UAAGUGCUUCCAUGCUU	-0.506
AGUGAAUGAUGGGUUCUGACC	-3.04
AAGGAGCUCACAGUCUAUUGAG	-1.13
CUGCAAAGGGAAGCCCUUUC	-3.43
CUAGUGAGGGACAGAACCAGGAUUC	-2.96
GUGGGUACGGCCCAGUGGGGGG	0.186
UGAGGGGCAGAGAGCGAGACUUU	-0.476
UAUGUGCCUUUGGACUACAUCG	-3.93
CGGGGCAGCUCAGUACAGGAU	0.97
AGCUGGUGUUGUGAAUCAGGCCG	-0.131
UGAGUGCCGGUGCCUGCCCUG	-2.45
UGAGAUGAAGCACUGUAGCUC	-1.52
UGAGAACCACGUCUGCUCUGAG	-1.74
GUAGAUUCUCCUUCUAUGAGUA	-1.33
UUUGUGACCUGGUCCACUAACC	-2.85
CUUAUGCAAGAUUCCCUUCUAC	-1.68
UAGUGCAAUAUUGCUUAUAGGGU	-3.19
CAUCUUCCAGUACAGUGUUGGA	0.0817

Sequence	cell count fold change with erlotinib
UAGAGUUACACCCUGGGAGUUA	-3.48
CAGUGCAAUGAUAUUGUCAAAGC	-2.68
AGACCUGGCCCAGACCUCAGC	0.672
UGAGCCCUGUCCUCCCGCAG	-3.68
AUCAUGAUGGGCUCCUCGGUGU	-3.05
AUGUAGGGCUAAAAGCCAUGGG	-1.51
AGGGUGUUUCUCUCAUCUCU	-1.29
UACUCAGGAGAGUGGCAAUCAC	-0.848
AGAGCUUAGCUGAUUGGUGAAC	-3.36
UUGCAGCUGCCUGGGAGUGACUUC	-2.6
GAAGUGCUUCGAUUUUGGGGUGU	-0.122
UGGAAGACUAGUGAUUUUGUUGU	-2.71
UGAGACCUCUGGGUUCUGAGCU	-0.719
GAUGAGCUCAUUGUAAUAUGAG	-2.97
UAAGGUGCAUCUAGUGCAGAUAG	-4.51
AGUGCCUGAGGGAGUAAGAGCCC	-2.56
CUCUAGAGGGAAGCGCUUUCUG	-1.78
GAAGGCGCUUCCCUUUAGAGCG	-2.22
UUUGUUCGUUCGGCUCGCGUGA	-4.05
AGACCAUGGGUUCUCAUUGU	-1.65
CAAAGCGCUUCCCUUUGGAGC	-0.111
CUCCAGAGGGAAGUACUUUCU	-1.13

Sequence	cell count fold change with erlotinib
AGAUCAGAAGGUGAUUGUGGCU	-0.11
UAGCAGCACGUAAAUAUUGGCG	-2.26
GGUUUGGUCCUAGCCUUUCUA	0.113
CUCUCACCACUGCCCUCCCACAG	-1.11
CGAAAACAGCAAUUACCUUUGC	-2.67
CUACAAAGGGAAGCACUUUCUC	-2.75
UGCCUGUCUACACUUGCUGUGC	-1.78
CAACCUGGAGGACUCCAUGCUG	-0.199
AGCAGCAUUGUACAGGGCUAUGA	-0.577
AGGCAGUGUAGUUAGCUGAUUGC	1.35
AAAGUGCUUCUCUUUGGUGGGU	0.279
AUGUAUGUGUGCAUGUGCAUG	0.321
AAAGUGCUUCCUUUUAGAGGGU	0.14
CGGGUCGGAGUUAGCUCAAGCGG	-0.802
CAGGGAGGUGAAUGUGAU	1.99
AGUUUUGCAGGUUUGCAUUUCA	-0.889
AAGUGUGCAGGGCACUGGU	-3.4
GUGGCUGCACUCACUUCCUUC	-0.272
UACUUGGAAAGGCAUCAGUUG	-0.495
UGGGCGUAUCUGUAUGCUA	-0.274
UUCUCCAAAAGAAAGCACUUUCUG	-1.65
AGGAUGAGCAAAGAAAGUAGAUU	-2.25

Source: the supplement of paper PMC4976141
